From patent publication US9289505B2, “Compositions and methods for delivering nucleic acid molecules and treating cancer” (Rutgers, The State University of New Jersey, priority 2010, dated 2016)
d = 2'-deoxy (DNA); r = 2'-OH (RNA)

Assays:
[1] = test system: A2780 human ovarian cancer cells; test: Cellular uptake of fluorophore labeled siRNA, confocal microscopy; assay type: cell-based; conditions: living cells
Procedure: Cellular uptake and intracellular localization of siRNA was investigated using a confocal microscopy. In this experiment, living cancer cells were incubated with fluorophore labeled naked siRNA (siGLO® Red, red fluorescence) and siRNA complexed with cationic nanocarrier PAMAM-PEG-PLL (N/P=3). Cellular uptake studied substances was monitored in living cells placed in a chamber at 37° C. within 1 hour. Cellular localization of siRNA was examined on fixed and washed cells after the incubation for 24 hours with the substances. Fluorescence and its distribution within the cell were examined using a confocal microscope.

BCL2 mRNA = test: BCL2 gene silencing by siRNA-dendrimer complexes, RT-PCR; assay type: cell-based, human; conditions: A549 cells, 24 hours incubation
Procedure: Quantitative reverse transcription-polymerase chain reaction (RT-PCR) was used for the analysis of expression of genes encoding BCL2 protein and β2-microglobulin (internal standard) as previously described (Pakunlu et al. (2003) Pharm. Res., 20:351-359). RNA was isolated after 24 hours incubation of cancer cells with siRNA-dendrimer complexes, using an RNeasy kit (Qiagen, Valencia, Calif.). First strand complementary DNA (cDNA) was synthesized by Ready-To-Go You-Prime First-Strand Beads (Amersham Biosciences, Piscataway, N.J.) with […] of total cellular RNA and 100 ng of random hexadeoxynucleotide primer (Amersham Bioscience, Piscataway, N.J.). After synthesis, the reaction mixture was immediately subjected to PCR, which was carried out using GenAmp® PCR System 2400 (Perkin-Elmer, Shelton, Conn.). The following pairs of primers were used: BCL2-GGATTGTGGCCTTCTTTGAG (sense; SEQ ID NO: 6), CCAAACTGAGCAGAGTCTTC (antisense; SEQ ID NO: 7); β2-microglobulin (β2-m)-ACCCCCACTGAAAAAGATGA (sense; SEQ ID NO: 8), ATCTTCAAACCTCCATGATG (antisense; SEQ ID NO: 9). […] Gene expression was calculated as the ratio of mean band intensity of analyzed RT-PCR product (BCL2) to that of the internal standard (β2-m). […]

[2] = Serum stability of siRNA and PAMAM-PEG-PLL-siRNA complex; assay type: in vitro ADME; conditions: 50% human serum, 37° C.
Procedure: Serum stabilities of naked siRNA and siRNA complexed with PAMAM-PEG-PLL nanocarrier were investigated by incubating siRNA or PAMAM-PEG-PLL-siRNA complex in 50% human serum at 37° C. Ten samples were prepared by mixing siRNA (30 nmol) in water with PAMAM-PEG-PLL (74.8 nmol, N/P=3) solution in water and separately incubated for 30 minutes at room temperature. In the case of naked siRNA, equal volume of RNAase free water was used instead of nanocarrier. To each of these samples 50% human plasma was added (final siRNA concentration was 1.43 nM) and incubated at 37° C. Samples were removed at an indicated time intervals (0, 0.25, 0.5, 0.75, 1, 3, 6, 12, 24 and 50 hours) and analyzed using a gel electrophoresis (4% agarose gel at 100 V for 50 minutes) in Tris-Borate-EDTA buffer containing EtBr. siRNA bands on the gel were visualized under ultraviolet light. PAMAM-PEG-PLL-siRNA samples were pre-treated with polymethacrylic acid to release free siRNA from cationic nanocarriers. 100 μL of polymethacrylic acid solution (4 μM) was added to the complexes (triblock nanocarrier/siRNA=3) and incubated at 37° C. with 50% human plasma. The released siRNA was then analyzed by a gel electrophoresis.

[3] = test system: A549 human lung cancer cells; test: Cellular internalization of FAM-labelled siRNA; assay type: cell-based; conditions: 24 hours, siRNA 0.25 μM, fluorescence microscopy
Procedure: Prior to the visualization, A549 cells were plated (20,000 cells per well) in a 6-well tissue culture plate. The cells were treated within 24 hours with the siRNA complex prepared with different generations of PPI dendrimer. The treatment of the A549 cells was performed in such a manner that the final concentration of siRNA was 0.25 μM and the concentrations of PPI G2, G3, G4, and G5 dendrimers were 3.15 μM, 1.58 μM, 0.79 μM, and 0.39 μM, respectively. After 24 hours of treatment, the cells were washed three times with Phosphate Buffered Saline (PBS) and 1 mL of media was added to each well. Cellular internalization of siRNA-dendrimer complexes were analyzed by fluorescent (Olympus America Inc., Melville, N.Y.) and confocal (Leica Microsystems Inc., Bannockburn, Ill.) microscopes. To obtain intracellular distribution of siRNA, ten optical sections, known as a z-series, were photographed sequentially, by confocal microscope, along the vertical (z) axis from the top to the bottom of the cell. The obtained fluorescent images were digitally scanned and fluorescence inside cells (reflecting intracellular accumulation of labelled siRNA) was expressed in arbitrary units.

BCL2 gene = BCL2 gene expression, RT-PCR; assay type: cell-based, human; conditions: A2780 cells, BCL2 siRNA 1 μM delivered by the named carrier, 24 hours
Procedure: Reverse transcription-polymerase chain reaction (RT-PCR) was used for the analysis of gene expression (Pakunlu et al. (2004) Cancer Res., 64:6214-6224). […] After 24 hours, total cellular RNA was isolated using an RNeasy kit (Qiagen, Valencia, Calif.). […] After synthesis, the reaction mixture was immediately subjected to polymerase chain reaction (PCR), which was carried out using […] System 2400 (Perkin-Elmer, Shelton, Conn.). β2-microglobulin (β2-m) was used as an internal standard. The following pairs of primers were used: BCL2: [NT] (sense; SEQ ID NO: 6), [NT] (antisense; SEQ ID NO: 7); β2-m (internal […] (sense; SEQ ID NO: 8), [NT] (antisense; SEQ ID NO: 9). PCR regimen was as follows: 94° C. for 5 minutes; 94° C. for 1 minute, 55° C. for 1 minute, and 72° C. for 1 minute for 41 cycles; and 60° C. for 10 minutes. PCR products were separated in 4% NuSieve 3:1 Reliant-agarose gels (Lonza, Basel, Switzerland) in 1× Tris-borate EDTA buffer [0.089 mol/L Tris-borate, 0.002 mol/L EDTA (pH 8.3); Research Organics Inc., Cleveland, Ohio] by submarine electrophoresis. The gels were stained with EtBr and digitally photographed.

[4] = test system: subcutaneous tumor xenografts of human A549 cancer cells; test: Antitumor activity in subcutaneous A549 xenografts; conditions: intratumoral 3 times within 10 days
Procedure: NCR nude mice (female, 6 weeks, 20 g) were purchased from Taconic Farms, Inc. (Germantown, N.Y.). […] Briefly, A549 human cancer cells transfected with luciferase (5×10^6) were subcutaneously transplanted into the flanks of female athymic nu/nu mice. According to the approved institutional animal use protocol, the tumors were measured by a caliper every other day and their volumes were calculated as d^2×D/2 where d and D are the shortest and longest diameter of the tumor in mm, respectively. When the tumor reached a mean size of 50 mm^3, mice were divided into seven groups and injected intratumorally 3 times within 10 days with 150 μL of the following formulations: (1) saline (control); (2) free non-bound LHRH; (3) free non-bound siRNA; (4) free non-bound CIS; (5) Mixture of CIS and SPIO-PPI G5; (6) Mixture of CIS and SPIO-PPI G5-siRNA; and (7) Mixture of CIS and SPIO-PPI G5-siRNA-PEG-LHRH complexes. The concentrations of CIS and siRNA in the formulations were 2.5 mg/kg and 30 μM, respectively. Changes in tumor size were monitored by real-time bioluminescence in anesthetized animals by IVIS imaging system (Xenogen Bioscience, Cranbury, N.J.).

5′-GUGAAGUCAACAUGCCUGC-dTdT-3′ (sense strand; SEQ ID NO: 4) and 5′-GCAGGCAUGUUGACUUCAC-dTdT-3′ (antisense strand; SEQ ID NO: 5) (sense GUGAAGUCAACAUGCCUGCTT; antisense GCAGGCAUGUUGACUUCACTT; sugars from the 5' end r19 d2, backbone not given here) [naked siRNA]
cellular uptake of siRNA [1]: did not penetrate the cancer cells | BCL2 gene knockdown (BCL2 mRNA): Gene silencing was not observed | incubation time after which siRNA started to degrade [2]: 1 h | siRNA cellular internalization [3]: not internalized by the cells | expression of targeted BCL2 gene, from control value (BCL2 gene): did not influenced | tumor growth / antitumor activity [4]: did not significantly influence the growth of the tumor
